From patent US10329289B2, “6,7-dihydro-5H-pyrrolo[3,4-B]pyridin-5-one allosteric modulators of the M4 muscarinic acetylcholine receptor” (Merck Sharp & Dohme Corp., priority 2015, dated 2019) come the findings set out here.

The target in the assay is T1, human M4 muscarinic acetylcholine receptor (Homo sapiens, UniProt P08173).
T1 construct: expressed in transfected cells; host or cells: CHO-K1
T1 sequence (P08173 1-479): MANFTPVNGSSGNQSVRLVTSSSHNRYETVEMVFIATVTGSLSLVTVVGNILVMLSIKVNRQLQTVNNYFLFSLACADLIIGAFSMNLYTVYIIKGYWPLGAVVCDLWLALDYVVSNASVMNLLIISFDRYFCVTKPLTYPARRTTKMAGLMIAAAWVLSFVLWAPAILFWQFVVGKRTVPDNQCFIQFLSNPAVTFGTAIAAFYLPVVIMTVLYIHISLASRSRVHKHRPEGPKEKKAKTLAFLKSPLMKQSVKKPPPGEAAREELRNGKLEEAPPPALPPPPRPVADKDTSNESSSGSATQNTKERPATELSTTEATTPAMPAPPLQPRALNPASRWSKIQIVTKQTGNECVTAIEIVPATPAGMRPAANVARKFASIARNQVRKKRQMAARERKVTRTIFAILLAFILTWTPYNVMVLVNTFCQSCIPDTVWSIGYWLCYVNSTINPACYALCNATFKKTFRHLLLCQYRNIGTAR
Nature of the assay: human FLIPR-based M4 PAM assay (Ca2+ mobilization, CHO-K1 cells with human M4 receptor and Gαqi5). In kind it is cell-based. Conditions: acetylcholine at 20% of maximum response, read-out: M4 PAM IP. As for the experimental part:
In a typical experiment the M4 muscarinic acetylcholine receptor modulating activity of the compounds of the present invention was determined in accordance with the following experimental method. CHO-K1 cells stably transfected with human M4 receptor and chimeric G-protein Gαqi5 (Coward P, et al., Analytical Biochemistry, 270:242-248 (1999)) are thawed from liquid N2 storage, resuspended in growth medium, plated in black, clear bottom 384 well plates, and incubated 16-20 hours at 37° C., 5% CO2. On the day of assay, growth medium is removed, the cells are washed 2 times with wash buffer, and cells are incubated in dye loading buffer at 37° C., 5% CO2 for ˜1 hour. […] Next, 10 uL of acetylcholine is added (final concentration calculated so as to achieve 20% of the maximum acetycholine response), and the fluorescence reading is continued for 3.5 min. In some cases, a third addition of acetylcholine (final concentration calculated to achieve 70% of the maximal acetylcholine response) is performed. The resulting dose response curves are fit to a 4 parameter logistic equation and the final result is determined as the inflection point (IP) of the curve
CHO-K1 cells stably transfected with human M4 receptor and chimeric G-protein Gαqi5 are thawed from liquid N2 storage, resuspended in growth medium, plated in black, clear bottom 384 well plates, and incubated 16-20 hours at 37° C., 5% CO2.
On the day of assay, growth medium is removed, the cells are washed 2 times with wash buffer, and cells are incubated in dye loading buffer at 37° C., 5% CO2 for ˜1 h. […] Next, 10 uL of acetylcholine is added (final concentration calculated so as to achieve 20% of the maximum acetycholine response), and the fluorescence reading is continued for 3.5 min. In some cases, a third addition of acetylcholine (final concentration calculated to achieve 70% of the maximal acetylcholine response) is performed.
(In general: Calcium assays in cells follow changes in intracellular calcium, usually with a dye or a luminescent sensor.)
On to “3-methyl-2-(4-(3,3,3- trifluoro-2- hydroxypropoxy)piperi- din-1-yl)-6,7-dihydro- 5H-pyrrolo[3,4- b]pyridin-5-one [Example 179]”, for which the EC50 was determined as 0.168 µM.

As to `Cc1cc2c(nc1N1CC[C@@H](Oc3cccc(C#N)c3)[C@@H](F)C1)CNC2=O` (relative stereo) [Example 7, 3-((cis-3-fluoro-1-(3-methyl-5-oxo-6,7-dihydro-5H-pyrrolo[3,4-b]pyridin-2-yl)piperidin-4-yl)oxy)benzonitrile], the EC50 was 0.03 µM. Next, `COc1ccc(O[C@@H]2CCN(c3nc4c(cc3C)C(=O)NC4)C[C@H]2C)cn1` (single isomer, unassigned) [Example 2A]: 0.086 µM; `COc1ccc(O[C@H]2CCN(c3nc4c(cc3C)C(=O)NC4)C[C@@H]2C)cn1` (single isomer, unassigned) [Example 2B]: 0.734 µM; `Cc1cc2c(nc1N1CCC(OC[C@@H]3C[C@H]3C(F)(F)F)CC1)CNC2=O` (single isomer, unassigned) [Example 3A, 3-methyl-2-(4-(((trans)-2-(trifluoromethyl)cyclopropyl)methoxy)piperidin-1-yl)-6,7-dihydro-5H-pyrrolo[3,4-b]pyridin-5-one]: 0.637 µM.

Regarding `Cc1cc2c(nc1N1CCC(Oc3ccc(O[C@H](C)CO)nc3)CC1)CNC2=O` (single isomer, unassigned) [Example 141A], the EC50 was determined as 0.082 µM. Under `Cc1cc2c(nc1N1CCC(Oc3ccc(O[C@@H](C)CO)nc3)CC1)CNC2=O` (single isomer, unassigned) [Example 141B] stands 0.055 µM; under `Cc1cc2c(nc1N1CCC(Oc3ccc([C@@H](C)O)cc3)CC1)CNC2=O` (single isomer, unassigned) [Example 150A], 0.124 µM.

In the case of `Cc1cc2c(nc1N1CCC(Oc3ccc([C@H](C)O)cc3)CC1)CNC2=O` (single isomer, unassigned) [Example 150B], the EC50 is 0.197 µM. Under `Cc1cc2c(nc1N1CCC(Oc3ccccc3)C(F)(F)C1)CNC2=O` (single isomer, unassigned) [Example 158A, cis-2-(3,3-Difluoro-4-phenoxypiperidin-1-yl)-3-methyl-6,7-dihydro-5H-pyrrolo[3,4-b]pyridin-5-one] stands 0.452 µM; under `Cc1cc2c(nc1N1CCC(Oc3ccccc3)C(F)(F)C1)CNC2=O` (single isomer, unassigned) [Example 158B, trans-2-(3,3-Difluoro-4-phenoxypiperidin-1-yl)-3-methyl-6,7-dihydro-5H-pyrrolo[3,4-b]pyridin-5-one], 0.017 µM. For the compound `Cc1cc2c(nc1N1CCC(OC[C@]3(C)C[C@@H]3F)CC1)CNC2=O` (single isomer, unassigned) [Example 160A], the EC50 was 0.627 µM. With `Cc1cc2c(nc1N1CCC(OC[C@@]3(C)C[C@H]3F)CC1)CNC2=O` (single isomer, unassigned) [Example 160B], the EC50 came to 0.096 µM. Consider `Cc1cc2c(nc1N1CCC(OC[C@]3(C)C[C@H]3F)CC1)CNC2=O` (single isomer, unassigned) [Example 160C], for which the EC50 amounted to 0.058 µM. Take `Cc1cc2c(nc1N1CCC(OC[C@@]3(C)C[C@@H]3F)CC1)CNC2=O` (single isomer, unassigned) [Example 160D]: the EC50 was found to be 0.037 µM. Under `Cc1cc2c(nc1N1CC[C@H](Oc3cccnc3)[C@H](F)C1)CNC2=O` (single isomer, unassigned) [Example 165, 2-((3R,4S) or (3S,4R)-3-fluoro-4-(pyridin-3-yloxy)piperidin-1-yl)-3-methyl-6,7-dihydro-5H-pyrrolo[3,4-b]pyridin-5-one] stands 0.467 µM; under `Cc1cc2c(nc1N1CC[C@@H](Oc3cccnc3)[C@@H](F)C1)CNC2=O` (single isomer, unassigned) [Example 166, 2-((3S,4R) or (3R,4S)-3-fluoro-4-(pyridin-3-yloxy)piperidin-1-yl)-3-methyl-6,7-dihydro-5H-pyrrolo[3,4-b]pyridin-5-one], 0.09 µM.

With `Cc1cc2c(nc1N1CCC(Oc3ccc4c(c3)C[S+]([O-])C4)CC1)CNC2=O` (single isomer, unassigned) [Example 168A], the EC50 was 0.209 µM. `Cc1cc2c(nc1N1CCC(Oc3ccc4c(c3)C[S+]([O-])C4)CC1)CNC2=O` (single isomer, unassigned) [Example 168B]: the EC50 worked out at 0.166 µM. Under `Cc1cc2c(nc1N1CCC(OCC(O)C(F)(F)F)CC1)CNC2=O` (single isomer, unassigned) [Example 181A] stands 0.055 µM; under `Cc1cc2c(nc1N1CCC(OCC(O)C(F)(F)F)CC1)CNC2=O` (single isomer, unassigned) [Example 181B], 0.183 µM.

For `COc1ccc(OC2[C@@H]3C[C@H]2CN(c2nc4c(cc2C)C(=O)NC4)C3)cn1` (single isomer, unassigned) [Example 185A], the EC50 stood at 8.63 µM.

`COc1ccc(OC2[C@@H]3C[C@H]2CN(c2nc4c(cc2C)C(=O)NC4)C3)cn1` (single isomer, unassigned) [Example 185B]: the EC50 turned out to be 2.53 µM. `Cc1cc2c(nc1N1CCC(OCC3(C)CC3C#N)CC1)CNC2=O` (single isomer, unassigned) [Example 191A]: the EC50 worked out at 1.47 µM. Next, `Cc1cc2c(nc1N1CCC(OCC3(C)CC3C#N)CC1)CNC2=O` (single isomer, unassigned) [Example 191B]: 30 µM. Under `Cc1cc2c(nc1N1CCC(OCC3(C)CC3C#N)CC1)CNC2=O` (single isomer, unassigned) [Example 193A] stands 0.312 µM; under `Cc1cc2c(nc1N1CCC(OCC3(C)CC3C#N)CC1)CNC2=O` (single isomer, unassigned) [Example 193B], 0.875 µM.

Consider `CCc1cc2c(nc1N1CC[C@@H](Oc3cccnc3)[C@@H](F)C1)CNC2=O` (single isomer, unassigned) [Example 215], for which the EC50 was 0.304 µM. Under `CCc1cc2c(nc1N1CC[C@@H](Oc3cccnc3)[C@@H](F)C1)CNC2=O` (single isomer, unassigned) [Example 216, 3-ethyl-2-((3R,4S)- or (3S,4R)-3-fluoro-4-(pyridin-3-yloxy)piperidin-1-yl)-6,7-dihydro-5H-pyrrolo[3,4-b]pyridin-5-one] stands 0.888 µM.

On to `CCOc1ccc(OC2CCN(c3nc4c(cc3C)C(=O)N[C@@H]4CCO)CC2)cn1` (single isomer, unassigned) [Example 234B], for which the EC50 stood at 0.078 µM.

`Cc1cc2c(nc1N1CCC(Oc3ccc4c(c3)COC4)CC1)CN(CC(C)O)C2=O` (single isomer, unassigned) [Example 238A, (R) or (S)-2-(4-((1,3-dihydro-2-benzofuran-5-yl)oxy)piperidin-1-yl)-6-(2-hydroxypropyl)-3-methyl-6,7-dihydro-5H-pyrrolo[3,4-b]pyridin-5-one]: the EC50 turned out to be 0.087 µM. Next, `COc1ccc(OC2CCN(c3nc4c(cc3C)C(=O)N([C@H](C)CO)C4)CC2)cn1` (single isomer, unassigned) [Example 264B]: 0.108 µM; `COc1ccc(OC2CCN(c3nc4c(cc3C)C(=O)N([C@@H](C)CO)C4)CC2)cn1` (single isomer, unassigned) [Example 264C]: 0.04 µM; `COc1ccc(OC2CCN(c3nc4c(cc3C)C(=O)N[C@H]4CO)CC2)cn1` (single isomer, unassigned) [Example 271A]: 0.941 µM. On to `COc1ccc(OC2CCN(c3nc4c(cc3C)C(=O)N[C@@H]4CO)CC2)cn1` (single isomer, unassigned) [Example 271B], for which the EC50 came to 0.038 µM. Under `COc1ccc(OC2CCN(c3nc4c(cc3C)C(=O)N(C)[C@H]4CO)CC2)cn1` (single isomer, unassigned) [Example 273A] stands 4.5 µM.

`COc1ccc(OC2CCN(c3nc4c(cc3C)C(=O)N(C)[C@@H]4CO)CC2)cn1` (single isomer, unassigned) [Example 273B]: the EC50 came out at 0.023 µM.

For the compound `COc1ccc(OC2CCN(c3nc4c(cc3C)C(=O)N(C)[C@@]4(C)CO)CC2)cn1` (single isomer, unassigned) [Example 287A], the EC50 was found to be 3.87 µM. Take `COc1ccc(OC2CCN(c3nc4c(cc3C)C(=O)N(C)[C@]4(C)CO)CC2)cn1` (single isomer, unassigned) [Example 287B]: the EC50 turned out to be 0.214 µM.
